The structures appear in SMILES notation. pIC50: −log10 of the molar value. Like-named read-outs stand apart in the source and are kept apart here.

The term pIC50 denotes the negative decadic logarithm of the IC50, by convention in mol/L.

This data set concerns TGF-β signaling (PAI-1 promoter-luciferase in HepG2 cells). Nature of the data set: Assay 1: PAI-1 promoter luciferase reporter assay in HepG2 cells exposed to TGF-β. For orientation: Reporter assays use an easily measured gene product as a stand-in for the process of interest.

Method: The assay was performed in HepG2 cells stably transfected with the PAI-1 promoter (known to be a strong TGF-β responsive promoter) linked to a luciferase (firefly) reporter gene. The compounds were selected on their ability to inhibit luciferase activity in cells exposed to TGF-β. In addition cells were transfected with a second luciferase (Renilla) gene which was not driven by a TGF-β responsive promoter and was used as a toxicity control.
(96 well) microplates are seeded, using a multidrop apparatus, with the stably transfected cell line at a concentration of 35000 cells per well in 200 μl of serum-containing medium. These plates are placed in a cell incubator.
18 to 24 hours later (Day 2), cell-incubation procedure is launched. Cells are incubated with TGF-β and a candidate compound at concentrations in the range 50 nM to 10 μM (final concentration of DMSO 1%). The final concentration of TGF-β (rhTGFβ-1) used in the test is 1 ng/mL. […] The final volume of the test reaction is 150 μl. Each well contains only one candidate compound and its effect on the PAI-1 promoter is monitored.
Columns 11 and 12 are employed as controls. Column 11 contains 8 wells in which the cells are incubated in the presence of TGF-β, without a candidate compound. Column 11 is used to determine the ‘reference TGF-β induced firefly luciferase value’ against which values measured in the test wells (to quantify inhibitory activity) may be compared. In wells A12 to D12, cells are grown in medium without TGF-β. […]
12 to 18 hours later (day 3), the luciferase quantification procedure is launched. […] Following agitation (15 to 30 mins), luciferase activities of the plates are read in a dual-injector luminometer (BMG lumistar). For this purpose, 50 μl of luciferase assay reagent and 50 μl of ‘Stop & Glo’ buffer are injected sequentially to quantify the activities of both luciferases. […] For each of the compounds tested, a concentration response curve is constructed from which an IC50 value can be determined graphically.

Regarding `O=C1C=CCC1` [CPO, Cyclopentenone, reference compound], the “firefly and renilla luciferase activities relative to those obtained in column 11 (TGF-β only)” value (500 μM CPO in presence of TGF-β, toxicity control wells E12 to H12) is “around 50%”.

Take `c1ccc(-c2n[nH]cc2-c2ccc3ncccc3n2)nc1` [Example 1, 2-(3-Pyridin-2-yl-1H-pyrazol-4-yl)-1,5-naphthyridine]: the pIC50 (Homo sapiens, HepG2, read-out: IC50 value in Assay 1 (inhibition of TGF-β induced firefly luciferase activity)) was around 7.30.

Take `Cc1cccc(-c2n[nH]cc2-c2ccc3ncccc3n2)n1` [Example 2]: for the setting “read-out: IC50 value in Assay 1 (inhibition of TGF-β induced firefly luciferase activity), HepG2 cells stably transfected with PAI-1 promoter-luciferase, rhTGFβ-1 1 ng/mL, 1% DMSO”, the pIC50 is around 7.30.

Values taken from patent US20040063949A1, “Compounds” (priority 2001, published 2004).
